Results: publication PMC5513037, “Examining the influence of specificity ligands and ATP-competitive ligands on the overall effectiveness of bivalent kinase inhibitors” (Proteome Science, 2017)

Assays:
Test in all cases: KAM-matrix competition in K562 lysate;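 on 0.001 uM KAM: median log10 fold change of treatment over DMSO control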;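 on 0.01 uM KAM: median log10 fold change of treatment over DMSO control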;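 on 0.1 uM KAM: median log10 fold change of treatment over DMSO control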;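 on 1 uM KAM: median log10 fold change of treatment over DMSO control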;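 on 10 uM KAM: median log10 fold change of treatment over DMSO control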
Type in all cases: binding
PRKDC = target: T1, PRKDC (Homo sapiens, UniProt P78527);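 on 0.001 uM KAM: median log10 fold change of treatment over DMSO control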;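 on 0.01 uM KAM: median log10 fold change of treatment over DMSO control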;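 on 0.1 uM KAM: median log10 fold change of treatment over DMSO control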;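 on 1 uM KAM: median log10 fold change of treatment over DMSO control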;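 on 10 uM KAM: median log10 fold change of treatment over DMSO control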
T1 construct: endogenous in cells; host or cells: K562
Method: (§1) Supplement 12953_2017_125_MOESM1_ESM.zip/MS_Supp Info.xlsx, sheet "KAM" | column: 10 uM KAM; 1 uM KAM; 0.1 uM KAM; 0.01 uM KAM; 0.001 uM KAM; RB50

MAP2K7 = target: T2, MAP2K7 (Homo sapiens, UniProt O14733);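 on 0.001 uM KAM: median log10 fold change of treatment over DMSO control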;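 on 0.01 uM KAM: median log10 fold change of treatment over DMSO control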;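 on 0.1 uM KAM: median log10 fold change of treatment over DMSO control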;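 on 1 uM KAM: median log10 fold change of treatment over DMSO control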;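 on 10 uM KAM: median log10 fold change of treatment over DMSO control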
T2 construct: endogenous in cells; host or cells: K562
T2 sequence (O14733 1-419): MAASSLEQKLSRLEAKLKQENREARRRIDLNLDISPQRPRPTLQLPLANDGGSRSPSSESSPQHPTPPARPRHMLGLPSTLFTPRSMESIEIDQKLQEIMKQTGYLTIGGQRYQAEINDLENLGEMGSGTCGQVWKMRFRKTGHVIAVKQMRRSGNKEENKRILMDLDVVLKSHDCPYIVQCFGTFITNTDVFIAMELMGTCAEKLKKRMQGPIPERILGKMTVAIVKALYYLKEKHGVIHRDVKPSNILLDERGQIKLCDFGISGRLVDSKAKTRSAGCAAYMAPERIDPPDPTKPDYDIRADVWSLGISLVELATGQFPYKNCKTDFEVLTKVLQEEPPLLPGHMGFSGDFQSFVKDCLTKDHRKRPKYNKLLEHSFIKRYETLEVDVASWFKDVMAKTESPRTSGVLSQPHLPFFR
Method: as §1

BRD4 = target: T3, BRD4 (Homo sapiens, UniProt O60885);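 on 0.001 uM KAM: median log10 fold change of treatment over DMSO control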;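 on 0.01 uM KAM: median log10 fold change of treatment over DMSO control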;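 on 0.1 uM KAM: median log10 fold change of treatment over DMSO control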;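 on 1 uM KAM: median log10 fold change of treatment over DMSO control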;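 on 10 uM KAM: median log10 fold change of treatment over DMSO control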
T3 construct: endogenous in cells; host or cells: K562
Method: as §1

MAP2K2 = target: T4, MAP2K2 (Homo sapiens, UniProt P36507)
T4 construct: endogenous in cells; host or cells: K562
Method: as §1

MAPK14 = target: T5, MAPK14 (Homo sapiens, UniProt Q16539);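 on 0.001 uM KAM: median log10 fold change of treatment over DMSO control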;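 on 0.01 uM KAM: median log10 fold change of treatment over DMSO control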;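 on 0.1 uM KAM: median log10 fold change of treatment over DMSO control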;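 on 1 uM KAM: median log10 fold change of treatment over DMSO control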;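 on 10 uM KAM: median log10 fold change of treatment over DMSO control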
T5 construct: endogenous in cells; host or cells: K562
Method: as §1

STK4 = target: T6, STK4 (Homo sapiens, UniProt Q13043)
T6 construct: endogenous in cells; host or cells: K562
T6 sequence (Q13043 1-487): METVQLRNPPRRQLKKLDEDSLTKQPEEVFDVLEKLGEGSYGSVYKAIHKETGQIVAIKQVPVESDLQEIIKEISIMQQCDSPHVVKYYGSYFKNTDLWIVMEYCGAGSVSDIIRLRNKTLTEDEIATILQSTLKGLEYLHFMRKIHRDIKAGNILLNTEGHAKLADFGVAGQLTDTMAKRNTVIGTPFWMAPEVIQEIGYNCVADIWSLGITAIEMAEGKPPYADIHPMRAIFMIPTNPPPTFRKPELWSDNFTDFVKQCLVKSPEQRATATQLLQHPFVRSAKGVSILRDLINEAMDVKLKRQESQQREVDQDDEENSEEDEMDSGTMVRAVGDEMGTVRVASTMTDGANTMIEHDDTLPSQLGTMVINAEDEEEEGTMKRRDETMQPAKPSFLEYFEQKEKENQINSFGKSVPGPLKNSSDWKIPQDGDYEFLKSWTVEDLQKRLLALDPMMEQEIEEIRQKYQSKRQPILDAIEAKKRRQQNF
Method: as §1

RPS6KA1 = target: T7, RPS6KA1 (Homo sapiens, UniProt Q15418);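 on 0.001 uM KAM: median log10 fold change of treatment over DMSO control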;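 on 0.01 uM KAM: median log10 fold change of treatment over DMSO control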;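 on 0.1 uM KAM: median log10 fold change of treatment over DMSO control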;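 on 1 uM KAM: median log10 fold change of treatment over DMSO control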;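 on 10 uM KAM: median log10 fold change of treatment over DMSO control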
T7 construct: endogenous in cells; host or cells: K562
Method: as §1

PLK1 = target: T8, PLK1 (Homo sapiens, UniProt P53350);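 on 0.001 uM KAM: median log10 fold change of treatment over DMSO control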;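 on 0.01 uM KAM: median log10 fold change of treatment over DMSO control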;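 on 0.1 uM KAM: median log10 fold change of treatment over DMSO control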;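 on 1 uM KAM: median log10 fold change of treatment over DMSO control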;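 on 10 uM KAM: median log10 fold change of treatment over DMSO control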
T8 construct: endogenous in cells; host or cells: K562
Method: as §1

[1] = KAM 0.001-10 uM, read-out: RB50 (the source's name)
[2] = read-out: RB50 (the source's name)

T4 sequence (P36507 whole entry): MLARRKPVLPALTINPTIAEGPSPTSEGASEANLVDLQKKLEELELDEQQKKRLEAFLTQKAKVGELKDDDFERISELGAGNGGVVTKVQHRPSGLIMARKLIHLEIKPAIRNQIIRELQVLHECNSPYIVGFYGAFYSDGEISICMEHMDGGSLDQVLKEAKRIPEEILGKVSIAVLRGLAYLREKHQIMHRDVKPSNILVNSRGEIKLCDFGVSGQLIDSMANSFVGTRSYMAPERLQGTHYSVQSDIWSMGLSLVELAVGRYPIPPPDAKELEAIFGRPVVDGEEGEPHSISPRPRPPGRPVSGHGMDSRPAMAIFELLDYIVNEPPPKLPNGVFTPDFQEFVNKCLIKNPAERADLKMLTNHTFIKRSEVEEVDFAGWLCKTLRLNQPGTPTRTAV
T7 sequence (Q15418 whole entry): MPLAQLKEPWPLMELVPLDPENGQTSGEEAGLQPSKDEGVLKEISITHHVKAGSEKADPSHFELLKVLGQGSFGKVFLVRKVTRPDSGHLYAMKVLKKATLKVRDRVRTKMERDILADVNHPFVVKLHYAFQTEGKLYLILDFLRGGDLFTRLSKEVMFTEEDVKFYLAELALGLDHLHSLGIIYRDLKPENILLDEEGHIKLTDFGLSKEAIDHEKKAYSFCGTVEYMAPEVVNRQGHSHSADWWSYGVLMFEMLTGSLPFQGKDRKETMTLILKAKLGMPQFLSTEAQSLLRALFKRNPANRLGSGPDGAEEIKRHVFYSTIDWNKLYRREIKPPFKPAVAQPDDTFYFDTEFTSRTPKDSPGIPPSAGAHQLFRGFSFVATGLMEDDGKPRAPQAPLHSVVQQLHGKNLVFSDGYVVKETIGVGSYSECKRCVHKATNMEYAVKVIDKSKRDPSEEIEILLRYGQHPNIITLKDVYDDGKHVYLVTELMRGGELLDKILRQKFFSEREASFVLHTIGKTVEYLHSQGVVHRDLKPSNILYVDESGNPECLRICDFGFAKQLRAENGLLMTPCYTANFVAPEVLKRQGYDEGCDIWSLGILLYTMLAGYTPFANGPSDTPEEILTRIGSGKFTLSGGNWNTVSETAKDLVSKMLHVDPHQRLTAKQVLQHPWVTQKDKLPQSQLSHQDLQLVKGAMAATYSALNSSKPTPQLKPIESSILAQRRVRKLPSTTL
T5 sequence (Q16539 whole entry): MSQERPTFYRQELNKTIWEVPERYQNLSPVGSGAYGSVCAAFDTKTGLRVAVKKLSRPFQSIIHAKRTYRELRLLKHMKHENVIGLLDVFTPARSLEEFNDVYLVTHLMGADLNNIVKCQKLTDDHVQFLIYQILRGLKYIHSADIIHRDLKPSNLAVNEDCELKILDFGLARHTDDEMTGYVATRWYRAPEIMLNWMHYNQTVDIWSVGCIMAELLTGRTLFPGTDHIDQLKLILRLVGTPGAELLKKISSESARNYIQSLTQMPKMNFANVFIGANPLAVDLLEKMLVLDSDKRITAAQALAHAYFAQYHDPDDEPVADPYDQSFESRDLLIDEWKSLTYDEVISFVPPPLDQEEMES
T8 sequence (P53350 whole entry): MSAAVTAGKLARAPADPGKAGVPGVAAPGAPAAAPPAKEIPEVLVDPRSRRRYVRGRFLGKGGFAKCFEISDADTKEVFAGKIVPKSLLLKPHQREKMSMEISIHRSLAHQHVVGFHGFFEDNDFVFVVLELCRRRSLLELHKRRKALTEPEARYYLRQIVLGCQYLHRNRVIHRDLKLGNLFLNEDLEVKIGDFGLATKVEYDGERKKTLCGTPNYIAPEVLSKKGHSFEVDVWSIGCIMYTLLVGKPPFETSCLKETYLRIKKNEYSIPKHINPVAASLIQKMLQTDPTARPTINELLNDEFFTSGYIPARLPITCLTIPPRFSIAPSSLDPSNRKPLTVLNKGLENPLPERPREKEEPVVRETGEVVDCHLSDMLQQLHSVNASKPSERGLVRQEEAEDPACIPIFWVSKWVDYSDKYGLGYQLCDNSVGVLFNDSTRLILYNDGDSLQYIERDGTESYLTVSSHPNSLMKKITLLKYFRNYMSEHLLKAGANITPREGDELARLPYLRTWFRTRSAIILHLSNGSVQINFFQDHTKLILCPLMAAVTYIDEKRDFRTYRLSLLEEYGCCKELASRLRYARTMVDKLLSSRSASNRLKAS

## N#CCc1ccc(Nc2nc(NCCCN)cc(Nc3cc(C4CC4)[nH]n3)n2)cc1 [KAM]
PRKDC; [1]
  IC50: > 10 µM
PRKDC; relative to 0 uM KAM = 0
  0.001 uM KAM: -0.0162
  0.01 uM KAM: -0.0236
  0.1 uM KAM: -0.1053
  1 uM KAM: -0.1689
  10 uM KAM: -0.08641
MAP2K7; [1]
  IC50: > 10 µM
MAP2K7; relative to 0 uM KAM = 0
  0.001 uM KAM: 0.00178
  0.01 uM KAM: -0.02319
  0.1 uM KAM: -0.04803
  1 uM KAM: -0.07056
  10 uM KAM: -0.08653
BRD4; [1]
  IC50: > 10 µM
BRD4; relative to 0 uM KAM = 0
  0.001 uM KAM: -0.02698
  0.01 uM KAM: 0.00122
  0.1 uM KAM: 0.04808
  1 uM KAM: 0.01224
  10 uM KAM: -0.001488
MAP2K2; 0.001 uM KAM
  median Log10 fold change: -0.0579
MAP2K2; 0.01 uM KAM
  median Log10 fold change: -0.04236
MAP2K2; 0.1 uM KAM
  median Log10 fold change: -0.2079
MAP2K2; 1 uM KAM
  median Log10 fold change: -0.4376
MAP2K2; 10 uM KAM
  median Log10 fold change: -0.4638
MAP2K2; [2]
  IC50: 0.36 µM
MAPK14; [1]
  IC50: > 10 µM
MAPK14; relative to 0 uM KAM = 0
  0.001 uM KAM: -0.03046
  0.01 uM KAM: 0.03223
  0.1 uM KAM: 0.1026
  1 uM KAM: 0.08115
  10 uM KAM: 0.173
STK4; 0.001 uM KAM
  median Log10 fold change: -0.002208
STK4; 0.01 uM KAM
  median Log10 fold change: -0.01313
STK4; 0.1 uM KAM
  median Log10 fold change: -0.2747
STK4; 1 uM KAM
  median Log10 fold change: -0.6557
STK4; 10 uM KAM
  median Log10 fold change: -0.6912
STK4; [2]
  IC50: 0.146 µM
RPS6KA1; [1]
  IC50: > 10 µM
RPS6KA1; relative to 0 uM KAM = 0
  0.001 uM KAM: -0.05187
  0.01 uM KAM: 0.03804
  0.1 uM KAM: -0.06196
  1 uM KAM: -0.09025
  10 uM KAM: -0.1209
PLK1; [1]
  IC50: > 10 µM
PLK1; relative to 0 uM KAM = 0
  0.001 uM KAM: -0.04372
  0.01 uM KAM: 0.0006975
  0.1 uM KAM: -0.07002
  1 uM KAM: -0.1195
  10 uM KAM: -0.1377
